We go through 6 molecules from US20250020650A1, “METHOD OF PREDICTING A PATIENT'S BENEFIT FROM THERAPY WITH AN IMMUNE CHECKPOINT INHIBITOR” (EBERHARD KARLS UNIVERSITAET TUEBINGEN MEDIZINISCHE FAKULTAET, priority 2021, published 2025).

One experiment has as its system platelets. In words: Controlled platelet stimulation, flow cytometry of pPD-L1. It counts as cell-based, human. The following applies: 10 μM TRAP-6, 2.5 μM ADP or 5 μg/mL collagen for 2 minutes, NSCLC patient platelets. Here is the method: Platelets were obtained from healthy donors (not taking any medication for at least 10 days) and NSCLC patients after informed writing consent. Citrated blood was briefly centrifuged for 20 min at 120×g, the upper fraction was harvested as platelet-rich plasma (PRP). Platelets were washed twice with citrate wash buffer (128 mmol/L NaCl, 11 mmol/L glucose, 7.5 mmol/L Na2HPO4, 4.8 mmol/L sodium citrate, 4.3 mmol/L NaH2PO4, 2.4 citric acid, 0.35% bovine serum albumin, and 50 ng/ml prostaglandin E1 (PGE1)). […] For platelet activation 10 μM of the Thrombin Receptor Activator Peptide 6 (TRAP-6), a protease-activated receptor 1 (PAR1) agonist, 2.5 μM ADP or 5 μg/mL Collagen was added to the platelets for 2 minutes. Platelets were fixed by 2% paraformaldehyde for 10 min and washed twice with PBS containing 1% FCS.
Flow cytometry was performed using fluorescence-conjugates or specific mAb and their controls followed by species-specific conjugate (Table 2) using a FACS Cantoll flow cytometer […] or a LSRFortessa (Becton Dickinson) from the flow cytometer facility Tuebingen.
Positive cells in percentage (%) were calculated as follows: Surface expression in percent obtained with the specific antibody—surface expression in percent obtained with isotype control. Platelets were preselected by CD41a^+ and CD62P^− (resting) or CD62P^+ (activated). Data analysis was performed using FlowJo software (v.10). In order to verify the reproducibility of the inventors' flow cytometry system, the inventors performed a Bland-Altman analysis (FIG. 11 f). For immunophenotyping of PBMC subsets of lung cancer patients and healthy control donors were identified by counterstaining with CD3-PECy5 (BD biosciences, San Diego, CA), CD19-APC/Fire750, CD4-Pacific Blue, CD8a-BV605, CD56-PECy7, CD14-BV785, HLA-DR-BV650 (Biolegend, San Diego, CA) and CD16-FITC (Invitrogen). PD-1 and PDL-1 expression as well as activation levels were analyzed using a PD-1-APC or PDL-1-APC and a CD69-PE antibody (BD biosciences), respectively. Isotype controls were obtained from BD biosciences. […]

In experiment [1] the test system is platelet adhesion to fibronectin. The experiment can be described thus: Platelet adhesion to fibronectin-coated surface with platelet-blocking agents. The conditions noted are these: washed platelets pretreated 30 minutes at 37° C.; 5 μg/mL anti-CD42b, 20 μg/mL anti-integrin β1 and anti-Integrin α5, 1 μg/mL Tirofiban. In kind it is cell-based, human. On the procedure: To prepare fibronectin matrices, plates were coated with a human plasma fibronectin purified protein (R&D, Minneapolis, MN, USA), (concentration 50 μg/cm^2) for 120 min. For blocking of GPIb-IX-V complex, α5β1 or GPIIbIIIa, washed platelets (8×10^7/mL) were pretreated with 5 μg/mL anti-CD42b (clone: AK2), 20 μg/mL anti-integrin β1 (clone: P4C10) and anti-Integrin α5 (clone: JBS5), 1 μg/mL Tirofiban or corresponding control IgG1 (20 μg/mL) for 30 minutes at 37° C. and 7% CO2. After co-incubation with platelets (8×10^7/mL) for 30 min at 37° C. and 7% CO2, non-adherent platelets were removed via three washing steps using PBS. After removal of non-adherent platelets cells were fixed in 2% PFA in PBS (pH 7.4) for 10 min at −20° C. Platelet adhesion to fibronectin fibrils was evaluated by calculating surface coverage area and platelet count/FoV and from microscopic images using an ImageJ script (v. 1.52).

Experiment [2] deals with protein translation in platelets. The experiment can be described thus: PD-L1 on cycloheximide pre-treated platelets after co-incubation with PD-L1-GFP transfected A549 cells. In kind it is cell-based, human. The conditions noted are these: platelets pre-treated with 100 μM cycloheximide. Here is the method: Tumor cells were coated with platelets as described previously with slight modifications. Briefly summarized, PRP was obtained from fresh whole blood by centrifugation for 20 minutes at 120 g. Platelets were washed twice with citrate wash buffer (128 mmol/L NaCl, 11 mmol/L glucose, 7.5 mmol/L Na2HPO4, 4.8 mmol/L sodium citrate, 4.3 mmol/L NaH2PO4, 2.4 citric acid, 0.35% bovine serum albumin). In some experiments platelets were pretreated with 5 μg/mL anti-CD42b (clone: AK2), 20 μg/mL anti-integrin β1 (clone: P4C10) and anti-Integrin α5 (clone: JBS5) or corresponding control IgG1 (20 μg/mL) for 30 minutes at 37° C. and 7% CO2. Tumor cells were incubated in platelets at a platelet-tumor cell ratio of […] for 30 minutes at 37° C. and 7% CO2. For immunofluorescence microscopy and FACS analysis cells were fixed in 2% PFA in PBS (pH 7.4) for 10 min at −20° C. prior staining.
For overexpression of PD-L1 (CD274) a True-ORF-GFP-tagged expression vector was used (OriGene Technologies, Rockville, MD, USA). Control cells were transfected using a FLAG tag. The FLAG cDNA was generated by PCR and cloned into the PD-L1-GFP vector using AsiSI and MluI restriction sites. Tumor cells were transfected with 2.5 μg DNA (PD-L1-GFP, FLAG-GFP) using Lipofectamine™ 3000, in accordance to the manufacturer's instructions.

Experiment [3] concerns the target T1, PD-L1 on platelets (Homo sapiens, UniProt Q9NZQ7).
T1 construct: PD-L1 positive platelets from NSCLC patients were pre-treated with the anti-PD-L1 mAB Atezolizumab; endogenous in cells; host or cells: platelets from the peripheral blood of NSCLC patients
In words: IFNγ ELISPOT and cytokine staining of EBV/CMV peptide-stimulated T cells co-incubated with PD-L1 positive platelets. It counts as cell-based. The conditions noted are these: platelets from NSCLC patients pre-treated 30 min, EBV/CMV-derived peptides, IFNγ and TNFα. On the procedure: Freshly thawed (ex vivo) PBMCs from healthy donors were analyzed by enzyme-linked immunospot (ELISPOT) assay in duplicates. Interferon γ (IFNγ) ELISPOT assays in the inventors' study were performed as described previously. In brief, 96-well nitrocellulose plates (Millipore) were coated with 1 mg/mL anti-IFNγ mAb (Mabtech) and incubated overnight at 4° C. In a next step, plates were blocked with human serum (10%) for 2 hours at 37° C. PBMCs (2.5×10^5 cells per well) were pulsed with an EBV/CMV epitope mix containing the frequently recognized peptides BRLF109-117 […] (SEQ ID NO: 11) (A*02) peptide and CMV pp65 (A*02) peptide NLVPMVATV (SEQ ID NO: 12) and incubated with or without platelets (ratio 1:50) for 24 hours. Phytohemagglutinin was used as positive control. HLA-A*02 (KLFEKVKEV (SEQ ID NO: 13))- and B*07 (KPSEKIQVL (SEQ ID NO: 14))-restricted control peptides derived from benign tissues (HV-exclusive HLA ligands) served as negative control. […] Readout was performed according to the manufacturer's instructions. Spots were counted using an ImmunoSpot S5 analyzer (CTL).
Peptide-specific T cells were further analyzed by intracellular cytokine and cell surface marker staining. […] Viable cells were determined using Aqua live/dead (1:400 dilution, Invitrogen). Samples were analyzed on a FACS Canto II cytometer (BD) and evaluated using FlowJo software v. […]

For experiment [4], the target named is T1, PD-L1 on platelets. The experiment can be described thus: NY-ESO-1 specific CD4+ TEM co-incubated with PD-L1 positive platelets (IFNγ and TNFα). It counts as cell-based. The conditions noted are these: pPD-L1 positive platelets pre-treated with Atezolizumab 100 μg/mL for 30 min, NY-ESO-1 peptides. On the procedure:
The generation of NY-ESO-1-specific T cells was performed using as described previously. In brief, PBMCs from a healthy donor (1×10^7/mL) were stimulated using pools of NY-ESO-1 overlapping peptides (1 μg/mL). The NY-ESO-1 overlapping peptide pool of 15 amino acid length (11 amino acid overlap) was purchased via Miltenyi Biotec. The cells were cultured in RPMI 1640 containing 10% human AB-serum and 1% L-glutamin in the presence of 10 U/mL recombinant IL-2 and 10 ng/ml II-7. Culture medium was replaced every third day. After a pre-sensitization period of 7-14 days, NY-ESO-1 specific, IFNγ^+ T cells were enriched after re-stimulation with NY-ESO-1 peptide pool for 6 h using CliniMACS® (Miltenyi Biotec) technique as reported previously. After enrichment, NY-ESO-1 specific T cells were expanded for 14 days in the presence of IL-7 (10 ng/ml), IL-15 (10 ng/mL) and IL-2 (50 U/mL). T cell specificity was analyzed via intracellular IFNγ staining as stated above. For further characterization of the T-cells the differentiation markers anti-CD45RO, mouse (1:200, clone: HI100), anti-CD62L, mouse (1:400, clone: DREG-56), anti-CD28, mouse (1:200, clone: CD28.2) and anti-CD27, mouse (1:200, clone: M-T271) were co-analyzed by flow cytometry. […] NY-ESO-1 specific T cell activity was determined by intracellular TNFα and IFNγ quantified via flow cytometry as described above.

T1 sequence (Q9NZQ7 19-290): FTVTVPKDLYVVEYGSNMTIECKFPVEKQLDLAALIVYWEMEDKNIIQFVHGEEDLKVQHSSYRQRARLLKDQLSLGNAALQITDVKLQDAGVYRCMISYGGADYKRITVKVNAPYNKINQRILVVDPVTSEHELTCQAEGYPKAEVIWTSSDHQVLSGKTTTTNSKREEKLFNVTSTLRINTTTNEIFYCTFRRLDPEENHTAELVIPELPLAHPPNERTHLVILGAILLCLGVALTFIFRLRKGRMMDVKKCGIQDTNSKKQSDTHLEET

For `Nc1ncnc2c1ncn2[C@@H]1O[C@H](COP(=O)(O)OP(=O)(O)O)[C@@H](O)[C@H]1O` [ADP], in the experiment on platelets, the “pPD-L1 expression on the platelet surface upon platelet stimulation” value (“pPD-L1 expression” below) is given as “maximized”.
Take `CCCCS(=O)(=O)N[C@@H](Cc1ccc(OCCCCC2CCNCC2)cc1)C(=O)O` [Tirofiban]: the “platelet adhesion to fibronectin” value in experiment [1] is “only marginally reduced”.
Regarding `C[C@@H]1C[C@@H]([C@H](O)CC2CC(=O)NC(=O)C2)C(=O)[C@@H](C)C1` [cycloheximide], the “PD-L1-GFP expression in platelets” value in experiment [2] is “did not result in a reduction”.
As for Atezolizumab, the “T cell inhibitory effect of PD-L1 expressing platelets” value with PD-L1 on platelets [3] is on record as “abolished”. For the same molecule, in the experiment with PD-L1 on platelets [4], the “T cell (CD4+ TEM) activity, IFNγ and TNFα release” value is “restored”.
Consider “Thrombin Receptor Activator Peptide 6 [TRAP-6]”, for which the “pPD-L1 expression” value with platelets was “maximized”.
Turning to collagen, the “pPD-L1 expression” value with platelets is “maximized”.
